Measured values published in PubChem BioAssay AID1963862 (Molecular Pharmacology Branch, DTP, NCI, 2024).

Test system: KRAS patient-derived spheroids with HUVEC/MSC, viability
Test: Anticancer human tumor 941728-121-R-J1-PDC patient-derived lung adenocarcinoma cell line growth inhibition [KRAS2]
Conditions: for IC50: curve of first compound; for viability, T/C: stronger effect = lower value
Procedure, shortened: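 KRAS-mutant tumor cells were grown as spheroids with HUVEC endothelial cells and human MSCs as stroma. Targeted agents were tested alone and with KRAS pathway inhibitors. Doses started at or near clinical Cmax, or 10 microM, descending half-log.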

[1] = second compound 0.1 µM, first compound 0.0316 µM
[2] = second compound 0.1 µM, first compound 0.1 µM
[3] = second compound 0.1 µM, first compound 0.316 µM
[4] = second compound 0.1 µM, first compound 1 µM
[5] = second compound 0.1 µM, first compound 3.16 µM
[6] = second compound 0.316 µM, first compound 0.0316 µM
[7] = second compound 0.316 µM, first compound 0.1 µM
[8] = second compound 0.316 µM, first compound 0.316 µM
[9] = second compound 0.316 µM, first compound 1 µM
[10] = second compound 0.316 µM, first compound 3.16 µM
[11] = second compound 1 µM, first compound 0.0316 µM
[12] = second compound 1 µM, first compound 0.1 µM
[13] = second compound 1 µM, first compound 0.316 µM
[14] = second compound 1 µM, first compound 1 µM
[15] = second compound 1 µM, first compound 3.16 µM
[16] = second compound 3.16 µM, first compound 0.0316 µM
[17] = second compound 3.16 µM, first compound 0.1 µM
[18] = second compound 3.16 µM, first compound 0.316 µM
[19] = second compound 3.16 µM, first compound 1 µM
[20] = second compound 3.16 µM, first compound 3.16 µM
[21] = second compound 10 µM, first compound 0.0316 µM
[22] = second compound 10 µM, first compound 0.1 µM
[23] = second compound 10 µM, first compound 0.316 µM
[24] = second compound 10 µM, first compound 1 µM
[25] = second compound 10 µM, first compound 3.16 µM
[26] = second compound 0.1 µM, first compound 10 µM
[27] = second compound 0.316 µM, first compound 10 µM
[28] = second compound 1 µM, first compound 10 µM
[29] = second compound 3.16 µM, first compound 10 µM
[30] = second compound 10 µM, first compound 10 µM
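Also: spheroids exposed to agents for seven days before readout.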

| SMILES | IC50 (second compound 0.1 µM) | IC50 (second compound 0.316 µM) | IC50 (second compound 1 µM) | IC50 (second compound 3.16 µM) | IC50 (second compound 10 µM) | viability, T/C [1] | viability, T/C [2] | viability, T/C [3] | viability, T/C [4] | viability, T/C [5] | viability, T/C [6] | viability, T/C [7] | viability, T/C [8] | viability, T/C [9] | viability, T/C [10] | viability, T/C [11] | viability, T/C [12] | viability, T/C [13] | viability, T/C [14] | viability, T/C [15] | further results |
| --- | --- | --- | --- | --- | --- | --- | --- | --- | --- | --- | --- | --- | --- | --- | --- | --- | --- | --- | --- | --- | --- |
| CC(=O)OC12COC1CC(O)C1(C)C(=O)C(O)C3=C(C)C(OC(=O)C(O)C(NC(=O)OC(C)(C)C)c4ccccc4)CC(O)(C(OC(=O)c4ccccc4)C21)C3(C)C (stereo not given) + CC1OCC2(CCN(c3cnc(Sc4ccnc(N)c4Cl)c(N)n3)CC2)C1N | < 10 nM | < 10 nM | < 10 nM | < 10 nM | < 10 nM | 34.6% | 33.9% | 39.2% | 39.5% | 41.6% | 34.4% | 30.2% | 32.1% | 37.2% | 38.9% | 52.4% | 44% | 45.9% | 53.4% | 54% | viability, T/C (second compound 0.1 µM, first compound 0.01 µM): 42.3%; viability, T/C (second compound 0.316 µM, first compound 0.01 µM): 37.1%; viability, T/C (second compound 1 µM, first compound 0.01 µM): 49.8%; viability, T/C (second compound 3.16 µM, first compound 0.01 µM): 24.4%; viability, T/C [16]: 23.3%; viability, T/C [17]: 21.5%; viability, T/C [18]: 27.3%; viability, T/C [19]: 29.8%; viability, T/C [20]: 27.4%; viability, T/C (second compound 10 µM, first compound 0.01 µM): 26.5%; viability, T/C [21]: 25.6%; viability, T/C [22]: 23.1%; viability, T/C [23]: 24.8%; viability, T/C [24]: 30.1%; viability, T/C [25]: 30.2% |
| COc1cc(Nc2ncc3c(n2)-c2ccc(Cl)cc2C(c2c(F)cccc2OC)=NC3)ccc1C(=O)O + COc1cc2nc(C)nc(NC(C)c3cc(N)cc(C(F)(F)F)c3)c2cc1OC1CCOC1 | < 31.6 nM | < 31.6 nM | < 31.6 nM | < 31.6 nM | < 31.6 nM | 52.4% | 44.5% | 44.1% | 47.7% | 42.1% | 41% | 42.3% | 44.1% | 40.2% | 40.7% | 34.7% | 38% | 36.5% | 38.2% | 33.9% | viability, T/C [26]: 42.1%; viability, T/C [27]: 37.3%; viability, T/C [28]: 31.4%; viability, T/C [16]: 34.2%; viability, T/C [17]: 32.6%; viability, T/C [18]: 36.6%; viability, T/C [19]: 30.6%; viability, T/C [20]: 23%; viability, T/C [29]: 19.7%; viability, T/C [21]: 12.4%; viability, T/C [22]: 14.3%; viability, T/C [23]: 7.81%; viability, T/C [24]: 4.39%; viability, T/C [25]: 6.63%; viability, T/C [30]: 3.43% |
| CC1(C)CCC(CN2CCN(c3ccc(C(=O)NS(=O)(=O)c4ccc(NCC5CCOCC5)c([N+](=O)[O-])c4)c(Oc4cnc5[nH]ccc5c4)c3)CC2)=C(c2ccc(Cl)cc2)C1 + COc1cc2nc(C)nc(NC(C)c3cc(N)cc(C(F)(F)F)c3)c2cc1OC1CCOC1 | < 31.6 nM | < 31.6 nM | < 31.6 nM | < 31.6 nM | < 31.6 nM | 38.8% | 40.6% | 36.4% | 33.9% | 6.79% | 36.7% | 33% | 38.5% | 31.8% | 7.02% | 35.2% | 46.4% | 34.4% | 32.2% | 7.71% | viability, T/C [26]: 4.58%; viability, T/C [27]: 3.43%; viability, T/C [28]: 1.61%; viability, T/C [16]: 39.2%; viability, T/C [17]: 34%; viability, T/C [18]: 32.2%; viability, T/C [19]: 29.6%; viability, T/C [20]: 5.76%; viability, T/C [29]: 3.49%; viability, T/C [21]: 19.6%; viability, T/C [22]: 19.7%; viability, T/C [23]: 17.5%; viability, T/C [24]: 7.37%; viability, T/C [25]: 1.44%; viability, T/C [30]: 0.52% |
| CC1(C)CCC(CN2CCN(c3ccc(C(=O)NS(=O)(=O)c4ccc(NCC5CCOCC5)c([N+](=O)[O-])c4)c(Oc4cnc5[nH]ccc5c4)c3)CC2)=C(c2ccc(Cl)cc2)C1 + CC1OCC2(CCN(c3cnc(Sc4ccnc(N)c4Cl)c(N)n3)CC2)C1N | < 31.6 nM | < 31.6 nM | < 31.6 nM | < 31.6 nM | < 31.6 nM | 38.4% | 30.5% | 32.1% | 31.2% | 6.63% | 32.1% | 24.3% | 29% | 34.3% | 5.9% | 29% | 26.9% | 26.1% | 27.3% | 5.85% | viability, T/C [26]: 2.32%; viability, T/C [27]: 1.62%; viability, T/C [28]: 2.94%; viability, T/C [16]: 28.4%; viability, T/C [17]: 24.7%; viability, T/C [18]: 23.7%; viability, T/C [19]: 20.8%; viability, T/C [20]: 5.87%; viability, T/C [29]: 1.91%; viability, T/C [21]: 20.1%; viability, T/C [22]: 23.8%; viability, T/C [23]: 23.2%; viability, T/C [24]: 19.2%; viability, T/C [25]: 3.98%; viability, T/C [30]: 0.4% |
| O=C(c1cc(Cc2n[nH]c(=O)c3ccccc23)ccc1F)N1CCN(C(=O)C2CC2)CC1 + C=CC(=O)N1CCN(c2nc(=O)n(-c3c(C)ccnc3C(C)C)c3nc(-c4c(O)cccc4F)c(F)cc23)C(C)C1 | < 31.6 nM | < 31.6 nM | < 31.6 nM | < 31.6 nM | < 31.6 nM | 29.5% | 24.6% | 21.9% | 19.5% | 21.1% | 28.2% | 33.6% | 24.4% | 19.8% | 24.2% | 34.2% | 34.4% | 33.8% | 29.3% | 24.7% | viability, T/C [26]: 23.8%; viability, T/C [27]: 25.2%; viability, T/C [28]: 26.7%; viability, T/C [16]: 35.2%; viability, T/C [17]: 34.2%; viability, T/C [18]: 36%; viability, T/C [19]: 30.9%; viability, T/C [20]: 34.6%; viability, T/C [29]: 35.3%; viability, T/C [21]: 39.3%; viability, T/C [22]: 43.3%; viability, T/C [23]: 42.1%; viability, T/C [24]: 43.2%; viability, T/C [25]: 45%; viability, T/C [30]: 48.2% |
| COC(=O)c1ccc2c(C(=Nc3ccc(N(C)C(=O)CN4CCN(C)CC4)cc3)c3ccccc3)c(O)[nH]c2c1 + CC1OCC2(CCN(c3cnc(Sc4ccnc(N)c4Cl)c(N)n3)CC2)C1N | < 31.6 nM | < 31.6 nM | < 31.6 nM | < 31.6 nM | < 31.6 nM | 39.2% | 35.5% | 36.7% | 37.2% | 36.6% | 35.3% | 32.1% | 28.8% | 28.8% | 24.6% | 34.4% | 25.5% | 18.5% | 20.4% | 15.4% | viability, T/C [26]: 38.2%; viability, T/C [27]: 25.6%; viability, T/C [28]: 19.5%; viability, T/C [16]: 29.1%; viability, T/C [17]: 23.2%; viability, T/C [18]: 17%; viability, T/C [19]: 12.7%; viability, T/C [20]: 10.5%; viability, T/C [29]: 10.7%; viability, T/C [21]: 21.2%; viability, T/C [22]: 16%; viability, T/C [23]: 9.59%; viability, T/C [24]: 8.94%; viability, T/C [25]: 3.3%; viability, T/C [30]: 1.71% |
